Test systems include CAKI-1 renal; HOP-92 NSCLC; IGROV1 ovarian; LOX IMVI melanoma; MOLT-4 leukemia; OVCAR-5 ovarian; SF-295 CNS; SK-MEL-5 melanoma; SW-620 colon; UACC-257 melanoma.
Holding throughout (experiment): NCI-60 cell line screen, 48 h

Where “and” joins values, the source holds several entries; their conditions need not be identical. Identical values can stand only once.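 Five compound concentrations were applied to cells in 96-well plates for 48 hours; endpoints were derived by simple linear interpolation of the resulting dose-response curve. The concentration for 50% growth inhibition is given as GI50. Definition used: TGI = concentration required for complete inhibition of growth.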

In the case of `COc1ccc2c(c1)C(C)Cc1c(Cl)ncnc1N2C` (stereo unspecified), the GI50 is 1.53 µM in the test with CAKI-1 renal; 1.25 µM with HOP-92 NSCLC; 1.96 µM in the test with IGROV1 ovarian; 0.218 µM with LOX IMVI melanoma; 1.17 µM in the test on MOLT-4 leukemia; 0.643 µM with OVCAR-5 ovarian. The GI50 in the test with SF-295 CNS was 0.375 µM; in the test with SK-MEL-5 melanoma, 0.188 µM; in the test on SW-620 colon, 0.377 µM; with UACC-257 melanoma it was 0.471 µM. For the same compound, the TGI was over 100 µM in the test with CAKI-1 renal; 7.5 µM in the test with HOP-92 NSCLC; over 69.6 µM in the test with IGROV1 ovarian; 0.517 µM in the test on LOX IMVI melanoma; over 22.6 µM with MOLT-4 leukemia; over 100 µM in the test with OVCAR-5 ovarian. Further, the TGI with SF-295 CNS was over 48.1 µM; with SK-MEL-5 melanoma, 0.353 µM; in the test with SW-620 colon, 17.8 µM; in the test on UACC-257 melanoma, 23.3 µM.
On to `Clc1coc2nc3ccccc3c(Nc3ccc4c(c3)OCO4)c12`, for which the GI50 with CAKI-1 renal is 1.51 µM; in the test with HOP-92 NSCLC, 8 µM; in the test on IGROV1 ovarian it was 5.95 µM; with LOX IMVI melanoma, 2.01 µM; with MOLT-4 leukemia, 0.803 µM; in the test on OVCAR-5 ovarian, 6.99 µM. Moreover, the GI50 with SF-295 CNS was 1.21 µM; with SK-MEL-5 melanoma, 1.46 µM; in the test on SW-620 colon, 3.22 µM; in the test on UACC-257 melanoma it was 9.15 µM. Besides, the TGI in the test on CAKI-1 renal is 10.6 µM; in the test with HOP-92 NSCLC, 63.2 µM; in the test on IGROV1 ovarian it was over 100 µM; in the test on LOX IMVI melanoma, 13.6 µM; in the test with MOLT-4 leukemia, 22 µM; in the test with OVCAR-5 ovarian, over 100 µM. Also, the TGI is 4.42 µM with SF-295 CNS, 5.78 µM in the test with SK-MEL-5 melanoma, 12.1 µM in the test with SW-620 colon and 26.1 µM with UACC-257 melanoma.
As to `CC[C@]12C=CCN3CC[C@@]4(c5ccc(OC)cc5N(C)[C@H]4[C@@](O)(C(=O)OC)[C@@H]1OC(=O)CCC[P+](c1ccccc1)(c1ccccc1)c1ccccc1)[C@@H]32`, the GI50 was 4.67 µM and 2.8 µM with CAKI-1 renal; 0.0934 µM and 0.241 µM with HOP-92 NSCLC; 0.235 µM and 0.394 µM in the test on IGROV1 ovarian; 0.923 µM and 0.662 µM in the test on LOX IMVI melanoma; 1.04 µM and 1.1 µM in the test on MOLT-4 leukemia; 1.19 µM and 1.38 µM in the test with OVCAR-5 ovarian. In addition, the GI50 with SF-295 CNS is 1.49 µM and 2.22 µM; with SK-MEL-5 melanoma, 0.817 µM and 1.65 µM; in the test on SW-620 colon it was 1.01 µM and 0.749 µM; in the test on UACC-257 melanoma, 0.364 µM and 0.275 µM. Besides, the TGI in the test with CAKI-1 renal is 12.3 µM and 10.4 µM; in the test with HOP-92 NSCLC it was 0.78 µM and 0.946 µM; with IGROV1 ovarian it was 0.923 µM and 1.61 µM; in the test with LOX IMVI melanoma, 6 µM and 2.18 µM; in the test on MOLT-4 leukemia it was 4.75 µM and 3.68 µM; in the test on OVCAR-5 ovarian, 5.91 µM and 11 µM. The TGI is 4.66 µM and 5.65 µM in the test with SF-295 CNS; 1.53 µM and 3.02 µM in the test on SK-MEL-5 melanoma; 7.04 µM and 11.4 µM in the test on SW-620 colon; 1.82 µM and 0.94 µM with UACC-257 melanoma.
In the case of `O=S(O)CCCCSSCC(O)C(O)CSSCCCCS(=O)O` (stereo unspecified), the TGI is over 100 µM with CAKI-1 renal; 79.7 µM and 96.5 µM in the test on HOP-92 NSCLC; over 100 µM with IGROV1 ovarian; 38.1 µM and 72.7 µM in the test with LOX IMVI melanoma; 6.69 µM and 9.58 µM with MOLT-4 leukemia; over 100 µM with OVCAR-5 ovarian. The TGI was 33.1 µM and 37.5 µM with SF-295 CNS; 18.1 µM and 26 µM in the test on SK-MEL-5 melanoma; 47.6 µM and 61.8 µM with SW-620 colon; 21.6 µM and 26.7 µM in the test with UACC-257 melanoma. In addition, the GI50 in the test on SK-MEL-5 melanoma was 4.97 µM and 11.2 µM.
Take `COc1ccc(C(=O)c2cc(OC)c(C)c(OC)c2)cc1OC(=O)CCl`: the GI50 in the test with CAKI-1 renal is 0.591 µM; in the test with HOP-92 NSCLC it was 3.22 µM; in the test with IGROV1 ovarian it was 1.19 µM; in the test with LOX IMVI melanoma, 0.244 µM; in the test on MOLT-4 leukemia, 0.145 µM; in the test on OVCAR-5 ovarian it was 4.37 µM. The GI50 with SF-295 CNS was 0.764 µM; in the test on SK-MEL-5 melanoma, 0.463 µM; in the test on SW-620 colon it was 0.211 µM; with UACC-257 melanoma it was 14 µM. The TGI in the test with CAKI-1 renal is 77.7 µM; in the test with HOP-92 NSCLC, 58.5 µM; in the test with IGROV1 ovarian it was over 100 µM; in the test on LOX IMVI melanoma, 19.6 µM; with MOLT-4 leukemia, 18 µM; in the test on OVCAR-5 ovarian it was over 100 µM. The TGI in the test with SF-295 CNS is 30.7 µM; in the test on SK-MEL-5 melanoma it was 3.4 µM; with SW-620 colon, over 100 µM; with UACC-257 melanoma it was over 95.8 µM.
On to `Oc1ccc(Cl)cc1Cc1cc(Cl)cc(Cl)c1O`, for which the GI50 was 7.86 µM in the test with CAKI-1 renal; 1.19 µM with HOP-92 NSCLC; 6.31 µM in the test on IGROV1 ovarian; 4.83 µM in the test on LOX IMVI melanoma; 5.52 µM in the test with MOLT-4 leukemia; 11.3 µM in the test on OVCAR-5 ovarian. For the same compound, the GI50 was 6.66 µM in the test on SF-295 CNS, 1.85 µM with SK-MEL-5 melanoma, 5.37 µM with SW-620 colon and 5.01 µM with UACC-257 melanoma. Also, the TGI is 35.9 µM in the test with CAKI-1 renal; 6.42 µM in the test on HOP-92 NSCLC; 28.9 µM in the test with IGROV1 ovarian; 19.2 µM with LOX IMVI melanoma; 32.1 µM in the test with MOLT-4 leukemia; 26.6 µM in the test on OVCAR-5 ovarian. For the same compound, the TGI worked out at 57.5 µM in the test on SF-295 CNS, 4.89 µM with SK-MEL-5 melanoma, 19.9 µM in the test with SW-620 colon and 32.5 µM with UACC-257 melanoma.
For `O=C1c2ccccc2C2(Br)C(=O)c3ccccc3C12` (stereo unspecified), the TGI in the test on CAKI-1 renal was over 100 µM; with HOP-92 NSCLC, over 100 µM; in the test with IGROV1 ovarian, over 100 µM; with LOX IMVI melanoma, 26.4 µM; with MOLT-4 leukemia, over 100 µM; in the test on OVCAR-5 ovarian it was over 100 µM. For the same compound, the TGI in the test with SF-295 CNS, with SK-MEL-5 melanoma, with SW-620 colon and in the test on UACC-257 melanoma was over 100 µM throughout.
In the case of `COCCOc1cc(F)c2c(Nc3ccc(NC(=O)Cn4cc(C(C)C)nn4)cc3)ncnc2c1`, the GI50 is over 100 µM in the test on CAKI-1 renal; 5.99 µM with HOP-92 NSCLC; over 100 µM in the test with IGROV1 ovarian; over 100 µM with LOX IMVI melanoma; over 100 µM in the test on MOLT-4 leukemia; over 100 µM with OVCAR-5 ovarian. Also, the GI50 in the test on SF-295 CNS is 53.5 µM; in the test with SK-MEL-5 melanoma, 24.3 µM; with SW-620 colon, over 100 µM; with UACC-257 melanoma, over 100 µM. The TGI in the test on CAKI-1 renal is over 100 µM; in the test with HOP-92 NSCLC, 92 µM; with IGROV1 ovarian, over 100 µM; in the test on LOX IMVI melanoma, over 100 µM; in the test with MOLT-4 leukemia, over 100 µM; in the test with OVCAR-5 ovarian, over 100 µM. In addition, the TGI in the test with SF-295 CNS, in the test on SK-MEL-5 melanoma, in the test with SW-620 colon and with UACC-257 melanoma was over 100 µM in each case.

(Values after PubChem BioAssay (NCI).)
